Experimental data taken from US6646137B1, “Non-peptide GnRH agents” (priority 1998, dated 2003).
Where two headings read alike, the source gives them in different places.

Target: T1, human GnRH receptor (Homo sapiens, UniProt P30968)
T1 construct: The cDNA for the human GnRH receptor is cloned into the plasmid expression vector, pcDNA 3; expressed in transfected cells; host or cells: HEK 293 cells, stably transfected (pcDNA 3); membrane preparation
T1 sequence (P30968 1-328): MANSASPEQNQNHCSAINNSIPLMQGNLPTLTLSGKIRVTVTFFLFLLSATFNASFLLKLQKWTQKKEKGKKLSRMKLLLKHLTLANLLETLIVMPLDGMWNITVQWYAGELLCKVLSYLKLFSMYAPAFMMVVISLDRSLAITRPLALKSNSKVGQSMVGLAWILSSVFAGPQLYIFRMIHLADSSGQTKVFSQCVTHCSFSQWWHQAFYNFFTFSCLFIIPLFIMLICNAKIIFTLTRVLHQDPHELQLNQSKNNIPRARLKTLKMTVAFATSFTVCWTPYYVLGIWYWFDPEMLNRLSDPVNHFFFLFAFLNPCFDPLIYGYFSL
Test: GnRH receptor competitive radioligand binding assay (125I-GnRH-A, HEK 293 cell membranes)
Conditions: compound at 10 μM
Source text: The cDNA for the human GnRH receptor is cloned into the plasmid expression vector, pcDNA 3 (In Vitrogen), and stably transfected in HEK 293 cells (a cell line developed by Dr. Stuart Sealfon, Mount Sinai Medical School, New York, N.Y.).
The human GnRH receptor (hGnRH) is cloned into pcDNA 3 (In Vitrogen), which provides high-level expression and a neomycin resistance marker. Lipofectamine (GIBCO BRL) is used to transfect HEK 293 cells with plasmid DNA. This method involves mixing the plasmid and reagent in serum-free medium, allowing DNA-liposome complexes to form, and overlaying cells with this solution. The HEK 293 cells are plated (seeded) on a 10-cm tissue culture dish at a density of 3×10^6 cells/dish the day before transfection. For each plate, 8 μg DNA plus 0.8 mL serum-free medium is mixed with 48 μL lipofectamine plus 0.8 mL serum-free medium, followed by incubation for 30 minutes at room temperature to allow DNA-liposome complexes to form. Serum-free medium is added to give a final volume of 6 mL/plate. The cells are rinsed twice with serum-free medium and overlayed with the DNA-liposome mixture. Five hours after transfection, an equal volume (6 mL) of medium containing 20% FBS (fetal bovine serum) is added. The cells are fed with fresh complete medium 18-24 hours after transfection. The cells are split 72 hours following transfection, at densities of 1:10 and 1:20. Stable tranformants are selected for by growth of the cells in antibiotic containing medium (G418, Sigma Chemical Company (also known as Geneticin)). Colonies are isolated and tested for receptor expression by radioligand binding and by measuring phosphoinositol turnover.
HEK 293 cells stably transfected with human GnRH receptors as described above are grown in MEM (minimal essential medium, available from Sigma Chemical Company) supplemented with 0.1% G418 (Sigma Chemical Company). Cells are homogenized in buffer A containing 50 mM Tris (pH 74.), 0.32M sucrose, 2 mM ethyleneglycol-bis(β-aminoethyl)-N,N,N′,N′-tetraacetic acid (EGTA), 1 mM phenylmethylsulfonyl fluoride (PMSF), 5 μg/mL aprotinen, 5 μg/mL Pepstatin A, and 1 μg/mL leupeptin. The homogenized cells are centrifuged at 4° C. at 20,000×g for 25 minutes, resuspended in buffer A, and recentrifuged at 4° C. at 20,000×g for an additional 25 minutes. Total membrane protein is determined with a BCA kit (Pierce, Rockford, Ill.). Membranes are stored at −70° C. at a final membrane protein concentration of 5 mg/mL.
The radioiodinated agonist analog of GnRH, [des-Gly^10, D-Ala^8]GnRH ethylamide (GnRH-A), is used as the labeled ligand. One μg of GnRH-A diluted in 0.1M acetic acid is added to an lodogen®-coated borosilicate glass tube pierce) containing 35 μL of 0.05M phosphate buffer (pH 7.4-7.6) and 1 mCi of Na[^125I]. The reaction mixture is vortexed and incubated for 1 minute at room temperature. After one minute, the mixture is vortexed again and allowed to incubate for an additional minute. Two mL of 0.5M acetic acid/1% BSA is added to the reaction tube, and the mixture is added to a C18 Sep-Pak cartridge. The cartridge is washed with subsequent washes of 5 mL H2O and 5 mL 0.5M acetic acid, and then eluted with 5×1 mL of 60% CH3CN/40% 0.5M acetic acid. The eluant is diluted with 3×volume of HPLC buffer A (0.1% TFA in H2O) and loaded onto a C18 column. The iodinated product is eluted over 20-25 minutes with a gradient of 25-100% CH3CN containing 0.1% TFA. The radioactive fractions (750 μL/fraction) are collected into clean polypropylene tubes containing 10 μL of 10% BSA. Fractions are assessed for biological activity by radioligand binding. Active fractions are utilized to screen the compounds for competitive binding assays.
HEK 293 cell membranes stably expressing hGnRHR (human GnRH receptors) are diluted to 0.5-1.0 mg/mL with assay buffer containing 50 mM HEPES (pH 7.4), 1 mM ethylenediarninetetraacetic acid (EDTA), 2.5 mM MgCl2, and 0.1% BSA. […]

[1] = average of 1st and 2nd test, read-out: Average % Remaining (percent of specific binding remaining)
[2] = crude compounds, 125I-GnRH-A, lower value = higher inhibition, read-out: % Remaining 1st Test (percent of specific binding remaining)
[3] = crude compounds, 125I-GnRH-A, lower value = higher inhibition, read-out: % Remaining 2nd Test (percent of specific binding remaining)

Structure (SMILES) | remaining activity at 10 µM [1] [%] | remaining activity at 10 µM [2] [%] | remaining activity at 10 µM [3] [%]
N=C(N)NCCCCN(Cc1ccc(OCc2ccccc2)c(OCc2ccccc2)c1)C(=O)c1cccc2ccccc12 [Compound 34] | 51 | 45 | 57
CC(=O)N(CCCCNC(=N)N)Cc1ccc(OCc2ccccc2)c(OCc2ccccc2)c1 [Compound 35] | 52 | 50 | 54
CN(C)CCCOc1ccc(CN(Cc2cccc(CNC(=N)N)c2)C(=O)c2ccc3ccccc3c2)cc1 [Compound 36] | 58 | 56 | 59
N=C(N)NCc1cccc(CN(CC23CC=CCC2C2CC=CCC2O3)C(=O)C2CCCCC2)c1 (stereo not drawn) [Compound 37] | 60 | 59 | 61
N=C(N)NCc1cccc(CN(CC23CC=CCC2C2CC=CCC2O3)C(=O)c2cccc3ccccc23)c1 (stereo not drawn) [Compound 38] | 57 | 59 | 55
N=C(N)NCc1cccc(CN(CC23CC=CCC2C2CC=CCC2O3)C(=O)c2ccc3ccccc3c2)c1 (stereo not drawn) [Compound 39] | 46 | 46 | 45
Cc1cc2c(cc1CN(Cc1cccc(CNC(=N)N)c1)C(=O)c1ccco1)C(C)(C)CCC2(C)C [Compound 40] | 12 | 12 | 11
CC(C)(C)c1ccc(CN(CC2CCCC(CNC(=N)N)C2)C(=O)c2cccc3ccccc23)cc1 (stereo not drawn) [Compound 41] | 45 | 46 | 43
CC(C)(C)c1ccc(CN(CC2CCCC(CNC(=N)N)C2)C(=O)c2ccc3ccccc3c2)cc1 (stereo not drawn) [Compound 42] | 58 | 54 | 62
CC(C)(C)c1ccc(CN(CC2CCCC(CNC(=N)N)C2)C(=O)c2cccs2)cc1 (stereo not drawn) [Compound 43] | 50 | 47 | 53
CC(C)(C)c1ccc(CN(CC2CCCC(CNC(=N)N)C2)C(=O)c2ccccc2)cc1 (stereo not drawn) [Compound 44] | 60 | 58 | 62
CN(C)CCCOc1ccc(CN(CC2CCCC(CNC(=N)N)C2)C(=O)c2ccc3ccccc3c2)cc1 (stereo not drawn) [Compound 46] | 49 | 45 | 52
N=C(N)NCC1CCCC(CN(CC23CC=CCC2C2CC=CCC2O3)C(=O)c2cccc3ccccc23)C1 (stereo not drawn) [Compound 47] | 42 | 39 | 44
N=C(N)NCC1CCCC(CN(CC23CC=CCC2C2CC=CCC2O3)C(=O)c2ccc3ccccc3c2)C1 (stereo not drawn) [Compound 48] | 44 | 48 | 40
N=C(N)NCC1CCCC(CN(CC23CC=CCC2C2CC=CCC2O3)C(=O)c2ccc(Cl)nc2)C1 (stereo not drawn) [Compound 49] | 58 | 53 | 62
N=C(N)NCC1CCCC(CN(Cc2cnc3ccccc3c2)C(=O)c2cccc3ccccc23)C1 (stereo not drawn) [Compound 50] | 55 | 47 | 62
N=C(N)NCC1CCCC(CN(Cc2cnc3ccccc3c2)C(=O)c2ccc3ccccc3c2)C1 (stereo not drawn) [Compound 51] | 56 | 48 | 63
Cc1cc2c(cc1CN(CC1CCCC(CNC(=N)N)C1)C(=O)C1CCCCC1)C(C)(C)CCC2(C)C (stereo not drawn) [Compound 52] | 58 | 57 | 59
Cc1cc2c(cc1CN(CC1CCCC(CNC(=N)N)C1)C(=O)c1cccc3ccccc13)C(C)(C)CCC2(C)C (stereo not drawn) [Compound 53] | 51 | 46 | 55
